Earlier results on one molecule are cited in US20230172916A1, “COMPOSITION COMPRISING AT LEAST ONE PROTOBERBERINE ALKALOID AND METHOD FOR MANUFACTURING SAME” (ELEONOR, priority 2020, published 2023).

The conditions of data set [1]: scientific studies report; species not stated.
The conditions of data set [2]: laboratory rats subjected to experiments.

SMILES strings stand for the structures. Read-outs that look alike come from different tables or passages of the source.

`COc1ccc2cc3[n+](cc2c1OC)CCc1cc2c(cc1-3)OCO2` [berberine, 2,3-methylenedioxy-9,10-dimethoxy-protoberberine]: the results for the bioavailability entry in data set [1] and in data set [2] were “less than 5%” and “about 0.68%”, respectively.
